In ChEMBL document CHEMBL5728971, “Small molecule inhibitors of lactate dehydrogenase and methods of use thereof” (2022):

Assay: Biochemical Assay: Test compounds were placed in a Greiner Bio-One (Monroe, N.C.) 1536-well black solid bottom assay plate. 200 millimolar (mM) Tris HCl, pH 7.4, 100 micromolar (μM) EDTA and 0.01% TWEEN-20™, final concentration, was used as the assay buffer. The LDHA reagent was 2 nanomolar (nM) Human LDHA (Meridian Life Science, Inc., Memphis, Tenn.), final concentration, in assay buffer.

IC50 | Structure (SMILES)
> 57000 nM | COc1ccc(-c2cc(O)n(-c3nc(C(=O)O)cs3)n2)cc1
> 57000 nM | O=C(O)c1csc(-n2nc(-c3ccc(F)cc3)cc2O)n1
< 100 nM | NS(=O)(=O)c1ccc(Cc2c(-c3ccc(F)c(C#CCC4CC4)c3)nn(-c3nc(C(=O)O)cs3)c2CC2CC2)cc1F
< 100 nM | N#CC#Cc1cc(-c2nn(-c3nc(C(=O)O)cs3)c(CC3CC3)c2Cc2ccc(S(N)(=O)=O)c(F)c2)ccc1F
< 100 nM | NS(=O)(=O)c1ccc(Cc2c(-c3ccc(F)c(C#CC4CCOC4)c3)nn(-c3nc(C(=O)O)cs3)c2CC2CC2)cc1F (stereo not given)
< 100 nM | Cc1ccc(C#Cc2cc(-c3nn(-c4nc(C(=O)O)cs4)c(CC4CC4)c3Cc3ccc(S(N)(=O)=O)c(F)c3)ccc2F)s1
< 100 nM | NS(=O)(=O)c1ccc(Cc2c(-c3cccc(C#CC4CCCC4)c3)nn(-c3nc(C(=O)O)cs3)c2CC2CC2)cc1F
< 100 nM | C/C=C/c1cc(-c2nn(-c3nc(C(=O)O)cs3)c(CC3CC3)c2Cc2ccc(S(N)(=O)=O)c(F)c2)ccc1F
< 100 nM | CC(C)(C)/C=C/c1cc(-c2nn(-c3nc(C(=O)O)cs3)c(CC3CC3)c2Cc2ccc(S(N)(=O)=O)c(F)c2)ccc1F
< 100 nM | Cc1ccc(C#Cc2cccc(-c3nn(-c4nc(C(=O)O)cs4)c(CC4CC4)c3Cc3ccc(S(N)(=O)=O)c(F)c3)c2)s1
< 100 nM | NS(=O)(=O)c1ccc(Cc2c(-c3ccc(F)c(/C=C/C4CC4)c3)nn(-c3nc(C(=O)O)cs3)c2CC2CC2)cc1F
< 100 nM | NS(=O)(=O)c1ccc(Cc2c(-c3ccc(F)c(C#CC(F)F)c3)nn(-c3nc(C(=O)O)cs3)c2CC2CC2)cc1F
< 100 nM | NS(=O)(=O)c1ccc(Cc2c(-c3ccc(F)c(C#CCN4CCCC4)c3)nn(-c3nc(C(=O)O)cs3)c2CC2CC2)cc1F
< 100 nM | C#Cc1cc(-c2nn(-c3nc(C(=O)O)cs3)c(CC3CC3)c2Cc2ccc(S(N)(=O)=O)c(F)c2)ccc1F
< 100 nM | CC(C)C#Cc1cc(-c2nn(-c3nc(C(=O)O)cs3)c(CC3CC3)c2Cc2ccc(S(N)(=O)=O)c(F)c2)ccc1F
< 100 nM | CC(F)C#Cc1cc(-c2nn(-c3nc(C(=O)O)cs3)c(CC3CC3)c2Cc2ccc(S(N)(=O)=O)c(F)c2)ccc1F (stereo not given)
in the range around 550 nM | NS(=O)(=O)c1ccc(Cc2c(-c3ccc(F)c(C#CC(F)(F)F)c3)nn(-c3nc(C(=O)O)cs3)c2CC2CC2)cc1F
< 100 nM | NS(=O)(=O)c1ccc(Cc2c(-c3ccc(F)c(/C=C/C4CCCC4)c3)nn(-c3nc(C(=O)O)cs3)c2CC2CC2)cc1F
< 100 nM | COCC#Cc1cc(-c2nn(-c3nc(C(=O)O)cs3)c(CC3CC3)c2Cc2ccc(S(N)(=O)=O)c(F)c2)ccc1F
< 100 nM | CC(C)(C)C#Cc1cc(-c2nn(-c3nc(C(=O)O)cs3)c(CC3CC3)c2Cc2ccc(S(N)(=O)=O)c(F)c2)ccc1F
< 100 nM | NS(=O)(=O)c1ccc(Cc2c(-c3ccc(F)c(C#CC4CCC4)c3)nn(-c3nc(C(=O)O)cs3)c2CC2CC2)cc1F

IC50 | Structure (SMILES)
< 100 nM | NS(=O)(=O)c1ccc(Cc2c(-c3ccc(F)c(C#CCCO)c3)nn(-c3nc(C(=O)O)cs3)c2CC2CC2)cc1F
< 100 nM | NS(=O)(=O)c1ccc(Cc2c(-c3ccc(F)c(C#CCC4CCCC4)c3)nn(-c3nc(C(=O)O)cs3)c2CC2CC2)cc1F
< 100 nM | CC#Cc1cc(-c2nn(-c3nc(C(=O)O)cs3)c(CC3CC3)c2Cc2ccc(S(N)(=O)=O)c(F)c2)ccc1F
< 100 nM | Cn1cncc1C#Cc1cc(-c2nn(-c3nc(C(=O)O)cs3)c(CC3CC3)c2Cc2ccc(S(N)(=O)=O)c(F)c2)ccc1F
< 100 nM | NS(=O)(=O)c1ccc(Cc2c(-c3ccc(F)c(C#Cc4cccs4)c3)nn(-c3nc(C(=O)O)cs3)c2CC2CC2)cc1F
< 100 nM | NS(=O)(=O)c1ccc(Cc2c(-c3cccc(N4CCC(F)(F)CC4)c3)nn(-c3nc(C(=O)O)cs3)c2CC2CC2)cc1F
< 100 nM | NS(=O)(=O)c1ccc(Cc2c(-c3cccc(N4CCCC(C(F)(F)F)C4)c3)nn(-c3nc(C(=O)O)cs3)c2CC2CC2)cc1F (stereo not given)
< 100 nM | NS(=O)(=O)c1ccc(Cc2c(-c3ccc(F)c(OCC4CC4(F)F)c3)nn(-c3nc(C(=O)O)cs3)c2CC2CC2)cc1F (stereo not given)
in the range around 29000 nM | NS(=O)(=O)c1ccc(Cc2c(-c3cccc(N4CCC(F)(F)C4)c3)nn(-c3nc(C(=O)O)cs3)c2CC2CC2)cc1F
< 100 nM | NS(=O)(=O)c1ccc(Cc2c(-c3cccc(N4CCCC(F)(F)C4)c3)nn(-c3nc(C(=O)O)cs3)c2CC2CC2)cc1F
< 100 nM | NS(=O)(=O)c1ccc(Cc2c(-c3ccc(F)c(C#CC4(F)COC4)c3)nn(-c3nc(C(=O)O)cs3)c2CC2CC2)cc1F
< 100 nM | NS(=O)(=O)c1ccc(Cc2c(-c3ccc(F)c(C#CC4(O)CCOC4)c3)nn(-c3nc(C(=O)O)cs3)c2CC2CC2)cc1F (stereo not given)
in the range around 29000 nM | CCOC(=O)c1csc(-n2nc(-c3ccc(F)c(C#CC4CCCC4)c3)c(Cc3ccc(S(N)(=O)=O)cc3)c2CC2CC2)n1
> 57000 nM | CCOC(=O)c1csc(-n2nc(-c3ccc(F)c(C#Cc4ccc(C)s4)c3)c(Cc3ccc(S(N)(=O)=O)c(F)c3)c2CC2CC2)n1
< 100 nM | NS(=O)(=O)c1ccc(Cc2c(-c3ccc(F)c(-c4ccc(F)s4)c3)nn(-c3nc(C(=O)O)cs3)c2CC2CC2)cc1F
in the range around 29000 nM | NS(=O)(=O)c1ccc(Cc2c(CC3CC3)nn(-c3nc(C(=O)O)cs3)c2-c2ccc(C(O)(C3CC3)C(F)(F)F)cc2)cc1F (stereo not given)
< 100 nM | C=C(c1cc(-c2nn(-c3nc(C(=O)O)cs3)c(CC3CC3)c2Cc2ccc(S(N)(=O)=O)c(F)c2)ccc1F)C(F)(F)F
> 57000 nM | CCOC(=O)c1csc(-n2nc(-c3ccc(F)c(C#CC4CCCC4)c3)c(Cc3cccc(S(N)(=O)=O)c3)c2CC2CC2)n1
> 57000 nM | CCOC(=O)c1csc(-n2nc(-c3cccc(C#CC4CCCC4)c3)c(Cc3ccc(S(N)(=O)=O)c(F)c3)c2CC2CC2)n1
< 100 nM | NS(=O)(=O)c1ccc(Cc2c(-c3cccc(C(O)(C4CC4)C(F)(F)F)c3)nn(-c3nc(C(=O)O)cs3)c2CC2CC2)cc1F (stereo not given)
< 100 nM | NS(=O)(=O)c1ccc(Cc2c(-c3ccc(F)c(C#CC4CC4)c3)nn(-c3nc(C(=O)O)cs3)c2CC2CC2)cc1

IC50 | Structure (SMILES)
< 100 nM | C/C=C(\C)c1cc(-c2nn(-c3nc(C(=O)O)cs3)c(CC3CC3)c2Cc2ccc(S(N)(=O)=O)c(F)c2)ccc1F
in the range around 550 nM | NS(=O)(=O)c1cccc(Cc2c(-c3ccc(F)c(C#CC4CCCC4)c3)nn(-c3nc(C(=O)O)cs3)c2CC2CC2)c1
< 100 nM | NS(=O)(=O)c1ccc(Cc2c(-c3ccc(F)c(C#CC4=CCCC4)c3)nn(-c3nc(C(=O)O)cs3)c2CC2CC2)cc1F
< 100 nM | CS(=O)(=O)c1ccc(Cc2c(-c3ccc(F)c(C#CCC4CCCO4)c3)nn(-c3nc(C(=O)O)cs3)c2CC2CC2)cc1F (stereo not given)
< 100 nM | NS(=O)(=O)c1ccc(Cc2c(-c3ccc(F)c(C4CC4)c3)nn(-c3nc(C(=O)O)cs3)c2CC2CC2)cc1Cl
< 100 nM | NS(=O)(=O)c1ccc(Cc2c(-c3ccc(F)c(C4=CCCC4)c3)nn(-c3nc(C(=O)O)cs3)c2CC2CC2)cc1F
< 100 nM | NS(=O)(=O)c1ccc(Cc2c(-c3ccc(F)c(C#CC4(F)CCCC4)c3)nn(-c3nc(C(=O)O)cs3)c2CC2CC2)cc1F
< 100 nM | NS(=O)(=O)c1ccc(Cc2c(-c3ccc(F)c(C#CC4(O)COC4)c3)nn(-c3nc(C(=O)O)cs3)c2CC2CC2)cc1F
< 100 nM | NS(=O)(=O)c1ccc(Cc2c(-c3ccc(F)c(C#CC4CCCC4)c3)nn(-c3nc(C(=O)O)cs3)c2CC2CC2)cc1
in the range around 29000 nM | CCOC(=O)c1csc(-n2nc(-c3ccc(F)c(C#CC4CCCC4)c3)c(Cc3ccc(S(N)(=O)=O)c(F)c3)c2C2CC2)n1
< 100 nM | NS(=O)(=O)c1ccc(Cc2c(-c3ccc(F)c(C(F)(F)F)c3)nn(-c3nc(C(=O)O)cs3)c2CC2CC2)cc1F
< 100 nM | C=C(C)c1cc(-c2nn(-c3nc(C(=O)O)cs3)c(CC3CC3)c2Cc2ccc(S(N)(=O)=O)c(F)c2)ccc1F
< 100 nM | Cc1ccc(-c2cc(-c3nn(-c4nc(C(=O)O)cs4)c(CC4CC4)c3Cc3ccc(S(N)(=O)=O)c(Cl)c3)ccc2F)s1
< 100 nM | NS(=O)(=O)c1ccc(Cc2c(-c3ccc(F)c(C#CC4CCCC4)c3)nn(-c3nc(C(=O)O)cs3)c2C2CC2)cc1F
> 57000 nM | Cc1oc(=O)oc1COC(=O)c1csc(-n2nc(-c3ccc(F)c(C#CC4CCCC4)c3)c(Cc3ccc(S(N)(=O)=O)c(F)c3)c2CC2CC2)n1
in the range around 29000 nM | CCOC(=O)c1csc(-n2nc(-c3ccc(F)c(C#CC4CC4)c3)c(Cc3ccc(S(N)(=O)=O)cc3)c2CC2CC2)n1
in the range around 29000 nM | CC#Cc1cc(-c2nn(-c3nc(C(=O)OCC)cs3)c(CC3CC3)c2Cc2ccc(S(N)(=O)=O)c(F)c2)ccc1F
< 100 nM | NS(=O)(=O)c1ccc(Cc2c(-c3ccc(F)c(C#CC4(F)CCOC4)c3)nn(-c3nc(C(=O)O)cs3)c2CC2CC2)cc1F (stereo not given)
< 100 nM | NS(=O)(=O)c1ccc(Cc2c(-c3ccc(F)c(C#CC4(O)CCCC4)c3)nn(-c3nc(C(=O)O)cs3)c2CC2CC2)cc1F
< 100 nM | CC1(C#Cc2cc(-c3nn(-c4nc(C(=O)O)cs4)c(CC4CC4)c3Cc3ccc(S(N)(=O)=O)c(F)c3)ccc2F)COC1
< 100 nM | CC#Cc1cc(-c2nn(-c3nc(C(=O)O)cs3)c(CC3CC3)c2Cc2cccc(S(N)(=O)=O)c2)ccc1F

Structure (SMILES) | IC50
O=C(O)c1csc(-n2nc(-c3ccc(Cl)cc3)cc2C(F)(F)F)n1 | in the range around 29000 nM
CC(C)=Cc1cc(-c2nn(-c3nc(C(=O)O)cs3)c(CC3CC3)c2Cc2ccc([SH+](N)[O-])c(F)c2)ccc1F (stereo not given) | < 100 nM
